Experimental data reported in US9029328B2, “Methods for cardioprotection and cardioregeneration with dimers of EGF family ligands” (The Brigham and Women's Hospital, Inc., priority 2010, dated 2015).

What was measured:
[1] = system: ErbB2 and ErbB3 receptors in H3255 cells; assay: Western blot of pHER2 and pHER3 in H3255 cell lysates; assay type: cell-based
Description: FIG. 9. Western blot analysis of pHER2 and pHER3 in lysates from H3255 cells stimulated by monovalent NRG (NC) or bivalent NRG (NN) (data representative of 2 independent experiments) (FIG. 9B). A possible mechanism for the observed differences in monovalent NRG compared to bivalent NN, in which NN fosters homodimerization or homo-oligomerization of HER3 at the expense of heterodimers with HER2, is illustrated in the schematic (FIG. 9A).
This hypothesis is further supported by the use of H3255 cells, which express high levels of the ErbB3 receptor and low levels of the ErbB4 receptor. Because the potential phenotypic effects associated with dimerization, oligomerization, and/or aggregation are more apparent with ErbB3 than ErbB4, this setting was chosen for proof-of-concept experiments.

[2] = target: T1, soluble crosslinked HER3 homodimers (ErbB3) (Homo sapiens, UniProt P21860); assay: Aggregation of soluble ErbB3 by dynamic light scattering; assay type: binding; conditions: various ligand:ErbB3 ratios, n=10
T1 construct: exposed to soluble crosslinked HER3 homodimers (ErbB3)
Method: FIG. 10. Specific binding of bivalent NN to HER3. Bivalent NN, monovalent NRG
(NC and NN), native NRG, or bivalent EN were exposed to soluble crosslinked HER3 homodimers (ErbB3) and hydrodynamic radius (RH) at various ligand:ErbB3 ratios. Receptor aggregation was determined by dynamic light scattering (n=10).

[3] = system: HER3 and HER4 receptors; assay: NRG relative affinity for HER3 and HER4 versus HER1; assay type: binding
Description: Accordingly, in the context of cardiomyocytes, receptor signaling bias can be achieved, for example, through use of a ligand with high affinity for HER4/ErbB4. One such ligand is neuregulin-1β (NRG or NRG1, as used herein). To this end, the invention provides an NRG ligand homodimer. This homodimer induces HER4 homodimerization due to the high affinity of NRG for HER4/ErbB4. NRG binds HER3 and HER4 receptors with approximately 5000-fold greater affinity than HER1. ErbB3 is not expressed on cardiomyocytes however so exposure of these cells to an NRG dimer will stimulate the dimerization of HER4 homodimers without interference from HER3 receptors.

[4] = system: hTERT-immortalized human mesenchymal stem cells (hTMSC); assay: ERK phosphorylation in hTMSC, western analysis with densitometry; assay type: cell-based
Method: FIG. 4. Cellular responses differ between native and bivalent NRG. (A) hTMSC were exposed to native (rhNRG), monovalent (C3, C4) and bivalent (NN) NRG in culture. ERK phosphorylation was measured via western analysis and quantified by densitometry.
Since NRG has high affinity for ErbB3 as well as ErbB4, and since ErbB3 is kinase-deficient, recruitment of ErbB3 homodimers via bivalent NRG should produce a null signaling outcome, whereas native or monovalent engineered NRG should be capable of stimulating ERK phosphorylation in these cells via ErbB2/ErbB3 mediated signaling.

[5] = system: Neonatal rat cardiomyocytes (NRCM); assay: Cardiomyocyte viability under doxorubicin, cell titer blue assay; assay type: cell-based; conditions: FIGS. 6 and 7; monomers compared with dimers
Method: FIG. 5. Bivalent NRG attenuates doxorubicin-induced toxicity to cardiomyocytes in vitro. (A) Neonatal rat cardiomyocytes (NRCM) were simultaneously exposed to doxorubicin (1 μM) and either fibroblast growth factor-1 (FGF1, a known NRCM mitogen), native NRG (NRG), or bivalent NRG (NRG-NRG) at the indicated doses. […] (B) Bivalent NRG may preferentially activate the PI3K/Akt pro-survival signaling pathway.
FIG. 6 is a bar graph showing the effect of NRG monomers and NRG homodimers on cardiomyocyte viability in the presence of doxorubicin.
FIG. 7 is a bar graph showing the effect of NRG monomers, NRG homodimers, EGF-NRG heterodimers, and EGF and NRG monomers on cardiomyocyte viability in the presence of doxorubicin.
The activity of engineered ErbB receptor ligands has been verified in multiple cell systems. ErbB receptor profiles in cardiomyocytes are distinct. The efficacy of engineered bivalent ligands has been tested on cardiomyocytes in culture. Specifically, the effects of native and bivalent NRG on cardiomyocytes exposed to DOX-induced cytotoxicity were examined. […] If this effect of bivalent NRG is validated in vivo, it could have significant potential as a new cardioprotective agent against DOX-induced cardiomyopathy.
FIGS. 6 and 7 show similar results.

[6] = target: ErbB4 (Homo sapiens, UniProt Q15303); conditions: NRG binding to ErbB4, reference [18]; cited from earlier work
[7] = target: ErbB1 (Homo sapiens, UniProt P00533); conditions: NRG binding to ErbB1, reference [18]; cited from earlier work
[8] = system: infarcted hearts; conditions: nanofiber delivery, n=7, from reference [10]; cited from earlier work
[9] = FDA label; cited from earlier work
[10] = system: HeLa cells; assay: ERK phosphorylation in HeLa cells (EGF containing ligands); assay type: cell-based; conditions: inhibitor control
Method: (§1) FIG. 3. Bioactivity of engineered ligands. Stimulation of ERK phosphorylation by engineered EGF (C1, C2) and NRG (C3, C4) compared to native protein. Inhibition of phosphorylation was accomplished via a pan-ErbB kinase inhibitor N-(4-((3-Chloro-4-fluorophenyl)amino)-pyrido[3,4-d]pyrimidin-6-yl)2-butynamide (i), indicating specificity; FIG. 3A (HeLa), FIG. 3B (MCF-7).
(§2) Proteins are produced using a maltose binding protein (MBP) tagged system (pMAL-c2X, New England Biolabs). Proteins are analyzed by Coomassie staining, immunoblotting, mass spectrometry, absorbance at 280 nm, and in vitro cell response versus wild type ligands EGF and NRG. Specificity for ErbB receptor activation was further assessed by including inhibitor controls using the pan-ErbB kinase inhibitor N-(4-((3-Chloro-4-fluorophenyl)amino)-pyrido[3,4-d]pyrimidin-6-yl)-2-butynamide. Bioactivity and ErbB specificity were validated in HeLa and MCF-7 cells (for EGF and NRG containing ligands, respectively) (FIG. 3). HeLa cells express EGFR and ErbB2 and are responsive to EGF while MCF-7 cells express ErbB3 and ErbB4 and are responsive to NRG.

[11] = system: MCF-7 cells; assay: ERK phosphorylation in MCF-7 cells (NRG containing ligands); assay type: cell-based; conditions: inhibitor control
Method: as §1, §2

T1 sequence (P21860 20-643 limits assumed): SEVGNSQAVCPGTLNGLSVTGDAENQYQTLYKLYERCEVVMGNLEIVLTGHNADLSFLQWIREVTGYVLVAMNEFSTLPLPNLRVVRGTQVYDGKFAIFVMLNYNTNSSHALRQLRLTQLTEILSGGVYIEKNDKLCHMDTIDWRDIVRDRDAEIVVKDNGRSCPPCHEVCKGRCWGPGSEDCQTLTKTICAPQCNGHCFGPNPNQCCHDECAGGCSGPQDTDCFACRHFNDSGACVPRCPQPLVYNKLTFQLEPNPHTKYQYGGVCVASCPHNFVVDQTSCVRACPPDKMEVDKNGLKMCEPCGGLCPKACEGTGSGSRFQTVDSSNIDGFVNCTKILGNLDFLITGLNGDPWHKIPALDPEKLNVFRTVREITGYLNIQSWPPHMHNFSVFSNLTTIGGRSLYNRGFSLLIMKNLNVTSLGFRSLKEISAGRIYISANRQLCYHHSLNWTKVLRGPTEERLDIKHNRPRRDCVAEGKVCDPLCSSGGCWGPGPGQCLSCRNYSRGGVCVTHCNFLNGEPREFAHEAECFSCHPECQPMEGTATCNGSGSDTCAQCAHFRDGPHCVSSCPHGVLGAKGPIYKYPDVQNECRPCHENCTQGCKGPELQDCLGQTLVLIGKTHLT
Chain of ErbB4 (Q15303 26-1308, species assumed): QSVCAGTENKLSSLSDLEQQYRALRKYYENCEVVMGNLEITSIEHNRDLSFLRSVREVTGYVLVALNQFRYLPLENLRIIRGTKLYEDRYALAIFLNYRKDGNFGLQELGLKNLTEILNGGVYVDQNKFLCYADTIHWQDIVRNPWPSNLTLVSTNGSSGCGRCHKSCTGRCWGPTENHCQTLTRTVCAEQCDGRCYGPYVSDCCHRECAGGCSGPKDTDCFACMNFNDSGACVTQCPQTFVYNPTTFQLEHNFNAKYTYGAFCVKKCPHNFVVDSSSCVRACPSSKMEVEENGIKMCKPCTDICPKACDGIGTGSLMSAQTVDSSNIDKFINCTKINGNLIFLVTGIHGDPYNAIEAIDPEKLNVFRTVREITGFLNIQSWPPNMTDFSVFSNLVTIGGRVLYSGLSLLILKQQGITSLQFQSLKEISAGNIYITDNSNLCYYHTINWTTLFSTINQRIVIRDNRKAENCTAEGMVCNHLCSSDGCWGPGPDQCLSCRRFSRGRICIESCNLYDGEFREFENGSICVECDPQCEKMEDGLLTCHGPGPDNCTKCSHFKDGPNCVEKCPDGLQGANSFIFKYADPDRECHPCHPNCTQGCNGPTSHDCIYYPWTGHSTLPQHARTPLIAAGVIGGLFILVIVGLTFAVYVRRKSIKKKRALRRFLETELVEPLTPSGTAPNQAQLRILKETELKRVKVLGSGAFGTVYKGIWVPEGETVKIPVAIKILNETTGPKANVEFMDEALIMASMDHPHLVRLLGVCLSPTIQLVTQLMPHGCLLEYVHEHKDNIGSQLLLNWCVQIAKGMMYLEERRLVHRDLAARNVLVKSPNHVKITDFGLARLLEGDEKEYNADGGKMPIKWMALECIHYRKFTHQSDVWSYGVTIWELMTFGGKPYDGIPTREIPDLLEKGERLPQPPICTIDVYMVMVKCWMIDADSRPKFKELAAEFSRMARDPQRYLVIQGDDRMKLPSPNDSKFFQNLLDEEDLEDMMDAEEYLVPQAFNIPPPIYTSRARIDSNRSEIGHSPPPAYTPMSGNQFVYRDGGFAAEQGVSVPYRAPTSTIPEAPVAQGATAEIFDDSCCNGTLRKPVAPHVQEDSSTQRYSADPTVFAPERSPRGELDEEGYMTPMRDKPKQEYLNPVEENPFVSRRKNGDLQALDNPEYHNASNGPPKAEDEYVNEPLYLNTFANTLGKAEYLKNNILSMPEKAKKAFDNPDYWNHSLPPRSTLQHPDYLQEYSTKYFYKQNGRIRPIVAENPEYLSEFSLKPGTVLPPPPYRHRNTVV

In the case of “NC: Monovalent NRG used as comparator to bivalent NN”, the “phosphorylation of ErbB2 and ErbB3 receptors” value [1] is reported as “stimulates phosphorylation” and the “aggregation of soluble ErbB3 receptors (hydrodynamic radius)” value [2] is reported as “Only bivalent NN induced aggregation”.

For neuregulin-1β [native NRG], the “greater affinity for HER3 and HER4 than HER1” value [3] was “approximately 5000 fold”, the “ERK phosphorylation (pERK response)” value [4] was “dose-dependent increase in ERK phosphorylation” and the “cardiomyocyte viability in the presence of doxorubicin” value [5] was “significantly (p<0.05) decreased”. The “aggregation of soluble ErbB3 receptors (hydrodynamic radius)” value [2] was “Only bivalent NN induced aggregation”, the Kd [6] was about 0.7 nM and the Kd [7] was about 5550 nM.

For “SDF-1(S4V): Protease resistant form of SDF-1, delivered via self-assembling peptide nanofibers”, the “capillary density (isolectin-positive staining)” value [8] is given as “increased capillary density”.

For COc1cccc2c1C(=O)c1c(O)c3c(c(O)c1C2=O)C[C@@](O)(C(=O)CO)C[C@@H]3O[C@H]1C[C@H](N)[C@H](O)[C@H](C)O1 [doxorubicin], the “cumulative dose at which risk of developing impaired myocardial function increases” value [9] is listed as “about 300 mg/m^2”.

With CC#CC(=O)Nc1cc2c(Nc3ccc(F)c(Cl)c3)ncnc2cn1 [N-(4-((3-Chloro-4-fluorophenyl)amino)-pyrido[3,4-d]pyrimidin-6-yl)-2-butynamide] the “inhibition of ligand-induced pERK activation” value [10] was “specifically inhibited” and the “inhibition of ligand-induced pERK activation” value [11] was “specifically inhibited”.
